Experimental data as given in patent publication US20190071670A1, “Methods Of Treatment For Alpha-1 Antitrypsin Deficiency” (Arrowhead Pharmaceuticals, Inc., priority 2016, published 2019).

System: hAAT
Test: Serum hAAT protein levels in PiZ mice (ELISA)
Format: in vivo, human (expressed in PiZ mice)
Settings: for Serum hAAT levels reduced: 6 month old female PiZ mice, single IV 8 mg/kg + 8 mg/kg MLP delivery polymer; for Serum hAAT normalized to Day 1 and control / Normalized serum hAAT levels: PiZ mice; for Normalized serum hAAT levels: normalized to day 1 and saline control
Method: Human AAT protein levels in serum were monitored for 29 days. At the indicated times, blood samples were collected and assayed for hAAT by ELISA. Day 1 samples were collected prior to trigger administration. For mRNA analysis, 3-4 mice were euthanized at each of days 3, 8, 15, 22, and 29. For euthanized mice, cardiac stick were performed for serum isolation for AAT ELISA (200 μl serum). Half of the left lateral liver lobe was collected and snap-freeze in liquid nitrogen for RNA isolation. The remainder of the left lobes were embedded into paraffin blocks for PAS-D staining with hematoxylin as counter-stain. Serum hAAT levels in mice given AAT Duplex Pair SEQ ID NO: 5/6 were 95% reduced on day 8 and remained reduced to day 29, at which time they were 79% reduced. Mice given AAT Duplex Pair SEQ ID NO: 5/6 were euthanized at either day 3, 8, 15, 22 or 29. Mice given saline or Luciferase siRNA control (SEQ ID 7/8) were euthanized on day 29. Levels of hAAT mRNA in the livers were measured by RT-qPCR. The hAAT mRNA in mice given AAT Duplex Pair SEQ ID NO: 5/6 was reduced by 97% on day 3 and remained reduced on day 29, at which time levels were 56% reduced. The size of the globules and the area of the liver covered by globules was digitally quantitated from liver specimens stained with PAS-D. Duplex Pair SEQ ID NO: 5/6 treated mice had 70% smaller globules at day 15 and 62% smaller globules at day 29. The area of the liver covered with globules was 83% reduced on day 15 and 72% reduced on day 29 (FIG. 5).

“Duplex Pair SEQ ID NO: 5/6: double-stranded AAT RNAi agent: modified antisense strand SEQ ID NO: 5 annealed to Chol-TEG sense strand SEQ ID NO: 6 (antisense TGGAACUUGGUGAUGAUAUTT; sense UAUAUAUCAUCACCAAGUUCCAT; Chol-TEG on sense strand; chemical modifications; antisense strand of dsRNA; modified_base 7 /mod_base = “2′-3′ seco corresponding nucleotide”; modified_base 2,4,6,8,10,12,14,16,18 /mod_base = “2′-deoxy-2′-fluoro corresponding nucleoside”; modified_base 3,5,9,11,13,15,17,19 /mod_base = “2′-O-methyl corresponding nucleoside”; modified_base 21 /mod_base = “5′-phosphorothioate corresponding nucleotide”; sense strand of dsRNA; modified_base 2 /mod_base = “2′-hydroxy corresponding nucleoside”; modified_base 4,6,8,10,12,14,16,18,20,22 /mod_base = “2′-deoxy-2′-fluoro corresponding nucleoside”; …)” was tested, and the “Serum hAAT levels reduced” value (day 8) was 95%, the “Serum hAAT levels reduced” value (day 29) was 79% and the “Serum hAAT normalized to Day 1 and control” value (“Serum hAAT normalized” below) (single IV 0.5 mg/kg + 4 mg/kg MLP delivery polymer, Day 1) was 1.00. For the same substance, the “Serum hAAT normalized” value (single IV 0.5 mg/kg + 4 mg/kg MLP delivery polymer, Day 3) was 0.27 ± 0.02, the “Serum hAAT normalized” value (single IV 0.5 mg/kg + 4 mg/kg MLP delivery polymer, Day 8) was 0.29 ± 0.09 and the “Serum hAAT normalized” value (single IV 0.5 mg/kg + 4 mg/kg MLP delivery polymer, Day 15) was 0.43 ± 0.01. The “Serum hAAT normalized” value (single IV 0.5 mg/kg + 4 mg/kg MLP delivery polymer, Day 22) was 0.73 ± 0.03, the “Serum hAAT normalized” value (single IV 0.5 mg/kg + 4 mg/kg MLP delivery polymer, Day 29) was 0.66 ± 0.05 and the “Serum hAAT normalized” value (single IV 0.5 mg/kg + 4 mg/kg MLP delivery polymer, Day 35) was 0.97 ± 0.02. The “Serum hAAT normalized” value (single IV 0.5 mg/kg + 4 mg/kg MLP delivery polymer, Day −3) was 0.64 ± 0.10, the “Serum hAAT normalized” value (single IV 0.5 mg/kg + 8 mg/kg MLP delivery polymer, Day 1) was 1.00 and the “Serum hAAT normalized” value (single IV 0.5 mg/kg + 8 mg/kg MLP delivery polymer, Day 3) was 0.20 ± 0.02. The “Serum hAAT normalized” value (single IV 0.5 mg/kg + 8 mg/kg MLP delivery polymer, Day 8) was 0.10 ± 0.03, the “Serum hAAT normalized” value (single IV 0.5 mg/kg + 8 mg/kg MLP delivery polymer, Day 15) was 0.19 ± 0.05 and the “Serum hAAT normalized” value (single IV 0.5 mg/kg + 8 mg/kg MLP delivery polymer, Day 22) was 0.55 ± 0.05. The “Serum hAAT normalized” value (single IV 0.5 mg/kg + 8 mg/kg MLP delivery polymer, Day 29) was 0.49 ± 0.09, the “Serum hAAT normalized” value (single IV 0.5 mg/kg + 8 mg/kg MLP delivery polymer, Day 35) was 0.71 ± 0.09 and the “Serum hAAT normalized” value (single IV 0.5 mg/kg + 8 mg/kg MLP delivery polymer, Day −3) was 0.71 ± 0.03. The “Normalized serum hAAT levels” value (single IV 2 mg/kg + 2 mg/kg MLP, day 1) was 1.00, the “Normalized serum hAAT levels” value (single IV 2 mg/kg + 2 mg/kg MLP, day 8) was 0.32 ± 0.24 and the “Normalized serum hAAT levels” value (single IV 2 mg/kg + 2 mg/kg MLP, day 15) was 0.88 ± 0.13. The “Normalized serum hAAT levels” value (single IV 2 mg/kg + 2 mg/kg MLP, day 20) was 0.89 ± 0.18, the “Normalized serum hAAT levels” value (single IV 2 mg/kg + 2 mg/kg MLP, day 29) was 1.01 ± 0.23 and the “Normalized serum hAAT levels” value (single IV 2 mg/kg + 2 mg/kg MLP, day 36) was 1.02 ± 0.15. For the same substance, the “Normalized serum hAAT levels” value (single IV 2 mg/kg + 2 mg/kg MLP, day −7) was 0.91 ± 0.11, the “Serum hAAT normalized” value (single IV 2 mg/kg + 4 mg/kg MLP delivery polymer, Day 1) was 1.00 and the “Serum hAAT normalized” value (single IV 2 mg/kg + 4 mg/kg MLP delivery polymer, Day 3) was 0.25 ± 0.03. For the same substance, the “Serum hAAT normalized” value (single IV 2 mg/kg + 4 mg/kg MLP delivery polymer, Day 8) was 0.21 ± 0.07, the “Serum hAAT normalized” value (single IV 2 mg/kg + 4 mg/kg MLP delivery polymer, Day 15) was 0.32 ± 0.06 and the “Serum hAAT normalized” value (single IV 2 mg/kg + 4 mg/kg MLP delivery polymer, Day 22) was 0.71 ± 0.14. The “Serum hAAT normalized” value (single IV 2 mg/kg + 4 mg/kg MLP delivery polymer, Day 29) was 0.66 ± 0.06, the “Serum hAAT normalized” value (single IV 2 mg/kg + 4 mg/kg MLP delivery polymer, Day 35) was 0.70 ± 0.09 and the “Serum hAAT normalized” value (single IV 2 mg/kg + 4 mg/kg MLP delivery polymer, Day −3) was 0.67 ± 0.02. For the same substance, the “Normalized serum hAAT levels” value (single IV 2 mg/kg + 4 mg/kg MLP, day 1) was 1.00, the “Normalized serum hAAT levels” value (single IV 2 mg/kg + 4 mg/kg MLP, day 8) was 0.07 ± 0.04 and the “Normalized serum hAAT levels” value (single IV 2 mg/kg + 4 mg/kg MLP, day 15) was 0.50 ± 0.19. The “Normalized serum hAAT levels” value (single IV 2 mg/kg + 4 mg/kg MLP, day 20) was 0.67 ± 0.12, the “Normalized serum hAAT levels” value (single IV 2 mg/kg + 4 mg/kg MLP, day 29) was 0.89 ± 0.06 and the “Normalized serum hAAT levels” value (single IV 2 mg/kg + 4 mg/kg MLP, day 36) was 0.94 ± 0.17. The “Normalized serum hAAT levels” value (single IV 2 mg/kg + 4 mg/kg MLP, day −7) was 0.90 ± 0.15, the “Serum hAAT normalized” value (single IV 2 mg/kg + 8 mg/kg MLP delivery polymer, Day 1) was 1.00 and the “Serum hAAT normalized” value (single IV 2 mg/kg + 8 mg/kg MLP delivery polymer, Day 3) was 0.17 ± 0.03. The “Serum hAAT normalized” value (single IV 2 mg/kg + 8 mg/kg MLP delivery polymer, Day 8) was 0.05 ± 0.00, the “Serum hAAT normalized” value (single IV 2 mg/kg + 8 mg/kg MLP delivery polymer, Day 15) was 0.10 ± 0.03 and the “Serum hAAT normalized” value (single IV 2 mg/kg + 8 mg/kg MLP delivery polymer, Day 22) was 0.22 ± 0.03. The “Serum hAAT normalized” value (single IV 2 mg/kg + 8 mg/kg MLP delivery polymer, Day 29) was 0.40 ± 0.06, the “Serum hAAT normalized” value (single IV 2 mg/kg + 8 mg/kg MLP delivery polymer, Day 35) was 0.63 ± 0.04 and the “Serum hAAT normalized” value (single IV 2 mg/kg + 8 mg/kg MLP delivery polymer, Day −3) was 0.53 ± 0.08. The “Normalized serum hAAT levels” value (single IV 4 mg/kg + 2 mg/kg MLP, day 1) was 1.00, the “Normalized serum hAAT levels” value (single IV 4 mg/kg + 2 mg/kg MLP, day 8) was 0.08 ± 0.03 and the “Normalized serum hAAT levels” value (single IV 4 mg/kg + 2 mg/kg MLP, day 15) was 0.68 ± 0.13. For the same substance, the “Normalized serum hAAT levels” value (single IV 4 mg/kg + 2 mg/kg MLP, day 20) was 0.90 ± 0.15, the “Normalized serum hAAT levels” value (single IV 4 mg/kg + 2 mg/kg MLP, day 29) was 1.07 ± 0.07 and the “Normalized serum hAAT levels” value (single IV 4 mg/kg + 2 mg/kg MLP, day 36) was 1.01 ± 0.08. For the same substance, the “Normalized serum hAAT levels” value (single IV 4 mg/kg + 2 mg/kg MLP, day −7) was 1.27 ± 0.07, the “Serum hAAT normalized” value (single IV 4 mg/kg + 4 mg/kg MLP delivery polymer, Day 1) was 1.00 and the “Serum hAAT normalized” value (single IV 4 mg/kg + 4 mg/kg MLP delivery polymer, Day 3) was 0.27 ± 0.03. The “Serum hAAT normalized” value (single IV 4 mg/kg + 4 mg/kg MLP delivery polymer, Day 8) was 0.13 ± 0.02, the “Serum hAAT normalized” value (single IV 4 mg/kg + 4 mg/kg MLP delivery polymer, Day 15) was 0.23 ± 0.07 and the “Serum hAAT normalized” value (single IV 4 mg/kg + 4 mg/kg MLP delivery polymer, Day 22) was 0.58 ± 0.09. The “Serum hAAT normalized” value (single IV 4 mg/kg + 4 mg/kg MLP delivery polymer, Day 29) was 0.60 ± 0.08, the “Serum hAAT normalized” value (single IV 4 mg/kg + 4 mg/kg MLP delivery polymer, Day 35) was 0.92 ± 0.22 and the “Serum hAAT normalized” value (single IV 4 mg/kg + 4 mg/kg MLP delivery polymer, Day −3) was 0.70 ± 0.17.
